Key:
in vitro = test: in vitro; parameters: dose or concentration left out as unconfirmed; settings: PAMPA, pH 7.4
Description: Permeability of compound in PBS buffer at pH 7.4 at 500 mM incubated for 18 hrs by UV plate reader based PAMPA assay

[1] = Binding affinity to wild type JAK2 JH1 catalytic domain (unknown origin) expressed in Sf9 cells and measured upto 30 mins by competitive fluorescence polarization assay; parameters: species or system Homo sapiens
[2] = target: T1, Tyrosine-protein kinase JAK2 (Homo sapiens, UniProt O60674); test: Binding affinity to wild type JAK2 JH2 pseudokinase domain (unknown origin) expressed in Sf9 cells and measured upto 30 mins by competitive fluorescence polarization assay
[3] = target: Tyrosine-protein kinase JAK2 (Homo sapiens, UniProt O60674, V617F); test: Binding affinity to wild type JAK2 JH2 pseudokinase domain (unknown origin) V617F mutant expressed in Sf9 cells and measured upto 30 mins by competitive fluorescence polarization assay
[4] = target: T1, Tyrosine-protein kinase JAK2; test: Binding affinity to wild type JAK2 JH2 pseudokinase domain (unknown origin) expressed in Sf9 cells at 50 uM and measured upto 30 mins competitive fluorescence polarization assay

T1 sequence (O60674 whole entry, the tested form may be a part): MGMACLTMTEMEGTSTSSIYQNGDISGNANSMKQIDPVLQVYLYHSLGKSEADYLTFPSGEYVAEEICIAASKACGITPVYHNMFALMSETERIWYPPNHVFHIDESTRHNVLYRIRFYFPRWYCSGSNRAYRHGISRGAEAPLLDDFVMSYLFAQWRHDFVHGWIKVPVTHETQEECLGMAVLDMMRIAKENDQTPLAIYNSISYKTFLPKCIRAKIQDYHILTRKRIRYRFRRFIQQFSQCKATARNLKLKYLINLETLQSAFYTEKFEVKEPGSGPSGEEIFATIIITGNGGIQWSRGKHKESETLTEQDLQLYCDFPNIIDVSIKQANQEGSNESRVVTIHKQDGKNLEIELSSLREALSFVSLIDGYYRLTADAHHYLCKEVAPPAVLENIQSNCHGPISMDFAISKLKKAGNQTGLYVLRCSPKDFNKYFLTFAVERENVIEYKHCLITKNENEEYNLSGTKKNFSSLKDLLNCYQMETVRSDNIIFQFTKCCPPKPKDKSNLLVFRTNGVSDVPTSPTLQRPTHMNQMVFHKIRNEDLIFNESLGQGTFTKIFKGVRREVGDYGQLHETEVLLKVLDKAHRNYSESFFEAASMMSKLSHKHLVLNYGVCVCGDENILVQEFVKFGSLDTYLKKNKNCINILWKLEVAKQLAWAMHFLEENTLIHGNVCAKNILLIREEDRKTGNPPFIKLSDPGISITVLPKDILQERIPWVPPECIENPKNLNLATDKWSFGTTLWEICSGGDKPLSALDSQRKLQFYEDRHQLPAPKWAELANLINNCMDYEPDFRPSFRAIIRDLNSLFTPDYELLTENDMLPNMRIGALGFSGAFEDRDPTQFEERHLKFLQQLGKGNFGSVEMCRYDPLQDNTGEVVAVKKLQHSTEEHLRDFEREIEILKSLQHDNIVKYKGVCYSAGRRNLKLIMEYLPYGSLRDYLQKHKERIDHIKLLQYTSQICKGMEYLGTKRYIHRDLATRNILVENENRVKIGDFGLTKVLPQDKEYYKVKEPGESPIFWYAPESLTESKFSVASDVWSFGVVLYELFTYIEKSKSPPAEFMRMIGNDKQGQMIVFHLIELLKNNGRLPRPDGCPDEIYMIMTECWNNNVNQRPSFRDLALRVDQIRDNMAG
Chain of Tyrosine-protein kinase JAK2 (Homo sapiens, UniProt O60674, V617F) (O60674 whole entry V617F, the tested form may be a part): as the sequence (O60674 whole entry, the tested form may be a part) above, with V617F counted along it

Kd [2] [nM]	Activity [4] [%]	SMILES	also measured
–	4	Nc1nc(-c2ccc(S(=O)(=O)CCC(=O)O)cc2)c2cc[nH]c2n1	–
–	27	Nc1nc(Oc2ccc(NC(=O)CCCC(=O)O)cc2)c2cc[nH]c2n1	–
9900	–	Nc1nc(Oc2ccc(NC(=O)N[C@H](Cc3ccccc3)C(=O)O)cc2)c2cc[nH]c2n1	–
590	–	Nc1nc(Oc2ccc(NC(=O)N[C@@H](COCc3ccccc3)C(=O)O)cc2)c2cc[nH]c2n1	–

The remaining lines, values behind:

SMILES	Kd [2] [nM]	Activity [4] [%]	also measured
O=C(N[C@H](CO)[C@H](O)c1ccc([N+](=O)[O-])cc1)C(Cl)Cl [CHLORAMPHENICOL]	–	–	Papp at 18 h (in vitro): 4.53 ×10⁻⁶ cm/s
Nc1nc(Oc2ccc(NC(=O)N[C@@H](CCc3ccccc3)C(=O)O)cc2)c2cc[nH]c2n1	327	–	Kd [1]: 36100 nM; Kd [3]: 179 nM
Nc1nc(Oc2ccc(NC(=O)N[C@H](CCc3ccccc3)C(=O)O)cc2)c2cc[nH]c2n1	–	46	–
Nc1nc(Oc2ccc(NC(=O)N[C@@H](Cc3ccccc3)C(=O)O)cc2)c2cc[nH]c2n1	2220	–	–
Nc1nc(Oc2ccc(NC(=O)N[C@@H](CCCc3ccccc3)C(=O)O)cc2)c2cc[nH]c2n1	587	–	–
Nc1nc(Oc2ccc(NC(=O)NCCC(=O)O)cc2)c2cc[nH]c2n1	–	30	–
Nc1nc(Oc2ccc(NS(=O)(=O)CCC(=O)O)cc2)c2cc[nH]c2n1	–	18	–
Nc1nc(Oc2ccc(NC(=O)CCC(=O)O)cc2)c2cc[nH]c2n1	18800	–	–
